Like-named read-outs stand apart in the source and are kept apart here.
Columns and labels:
Assay in all cases: biochemical
[1] = biological target: T1, S. mansoni TGR/Prx2 (Schistosoma mansoni, UniProt Q962Y6); type: biochemical
T1 sequence (Q962Y6 1-598): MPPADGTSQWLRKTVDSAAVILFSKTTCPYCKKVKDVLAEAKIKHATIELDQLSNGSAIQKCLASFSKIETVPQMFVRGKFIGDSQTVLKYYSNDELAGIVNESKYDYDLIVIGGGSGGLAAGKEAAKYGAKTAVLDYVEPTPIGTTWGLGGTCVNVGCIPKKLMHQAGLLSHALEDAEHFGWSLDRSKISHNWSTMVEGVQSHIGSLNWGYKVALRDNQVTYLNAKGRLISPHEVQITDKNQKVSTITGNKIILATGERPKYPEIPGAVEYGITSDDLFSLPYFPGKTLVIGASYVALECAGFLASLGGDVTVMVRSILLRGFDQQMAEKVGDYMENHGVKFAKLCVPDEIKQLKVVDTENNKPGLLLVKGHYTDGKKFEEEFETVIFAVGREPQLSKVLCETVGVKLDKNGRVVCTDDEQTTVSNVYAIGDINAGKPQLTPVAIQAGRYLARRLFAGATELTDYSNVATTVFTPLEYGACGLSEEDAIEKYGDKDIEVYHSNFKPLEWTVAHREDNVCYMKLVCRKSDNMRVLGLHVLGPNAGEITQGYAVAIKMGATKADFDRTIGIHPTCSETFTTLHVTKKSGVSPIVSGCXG

[2] = biological target: T2, TGR (Schistosoma mansoni, UniProt Q962Y6)
T2 sequence (Q962Y6 1-598): T1 sequence (Q962Y6 1-598)

[3] = biological target: T1, S. mansoni TGR/Prx2
[4] = DTNB as substrate, 15 nM TGR, read-out: TGR Assay IC50
[5] = initial high throughput screen of the collection, 25 nM TGR, 50 nM Prx2, read-out: qHTS IC50

| SMILES | IC50 [2] | IC50 [3] | also measured |
| --- | --- | --- | --- |
| CC1COc2c(N3CCN(C)CC3)c(F)cc3c(=O)c(C(=O)O)cn1c23 (centres unmarked) [Ofloxacin, reference compound] | – | – | activity in qHTS ([1]; primary screen): apparent activator |
| O=C([O-])[C@H]([O-])[C@@H]([O-])C(=O)[O-].O=C([O-])[C@H]([O-])[C@@H]([O-])C(=O)[O-].[K+].[K+].[Sb+3].[Sb+3] [PAT, potassium antimonyl tartrate, reference compound] | – | – | IC50 ([1]; read-out: average IC50 of intraplate control titration): 14 ± 8 nM |
| O=P(Nc1ccccc1F)(c1ccccc1)c1nc2ccccc2s1 (centres unmarked) [compound 2] | 12000 nM | 23000 nM | – |
| O=C(c1ccco1)c1no[n+]([O-])c1C(=O)c1ccco1 [compound 5] | 25 nM | 1500 nM | – |
| Cc1nn(C)cc1C(=O)c1no[n+]([O-])c1C(=O)c1cn(C)nc1C [compound 6] | – | – | IC50 [2, 4]: 2000 nM; IC50 [1, 5]: 24000 nM |
| O=C(c1cccs1)c1no[n+]([O-])c1C(=O)c1cccs1 [compound 7] | – | 1500 nM | IC50 [2, 4]: 20 nM; IC50 [1, 5]: 9200 nM |
| COc1ccc(C(=O)c2no[n+]([O-])c2C(=O)c2ccc(OC)cc2)cc1 [compound 8] | – | 4700 nM | IC50 [2, 4]: 60 nM; IC50 [1, 5]: 10000 nM |
| N#Cc1c(-c2ccccc2)no[n+]1[O-] [compound 9] | 1800 nM | – | IC50 [1]: 8700 nM |
| CCOC(=O)C(C(=O)OCC)c1cc(Br)c2noc3c2c1C(=O)c1ccccc1-3 [compound 10] | 9000 nM | > 57000 nM | IC50 [1]: 530 nM |
| COC(=O)C(C(=O)OC)c1cc(Br)c2noc3c2c1C(=O)c1ccccc1-3 [compound 11] | 80 nM | 120 nM | – |
| CCCCOc1cc(Br)c2noc3c2c1C(=O)c1ccccc1-3 [compound 12] | – | – | IC50 [2, 4]: 150 nM; IC50 ([3]; read-out: Confirmation IC50): 840 nM |
| CC1=CC(=O)NP(=O)(Oc2ccc(Cl)cc2)N1 (centres unmarked) [compound 13] | 550 nM | 420 nM | – |
| CC1=CC(=O)NP(=O)(Oc2ccccc2)N1 (centres unmarked) [compound 15] | 4000 nM | 2000 nM | – |
| CCOc1ccc(OP2(=O)NC(=O)C=C(C)N2)cc1 (centres unmarked) [compound 16] | 600 nM | 180 nM | – |
